Experimental data reported in article PMC12566936, “DST-3, a Novel Modified Cryptotanshinone, Protects Against Pulmonary Fibrosis via Inhibiting STAT3/Smad Signaling Pathway and Improves Bioavailability” (Pharmaceutics, 2025).
Read-outs that look alike come from different tables or passages of the source.

Key:
[1] = Pharmacokinetic study, single iv or oral administration in SD rats; assay type: in vivo; settings: for concentration at 0.25 h / concentration at 0.5 h / concentration at 1 h / concentration at 2 h / concentration at 3 h / concentration at 4 h / concentration at 6 h / concentration at 8 h / concentration at 12 h / concentration at 24 h: n = 4; for MRT last: read-out: MRT0–t
Protocol: A total of 16 male SD rats, according to weight, were randomly divided into four groups (n = 4), a~d, as described in pharmacodynamics study: • (A) DST-3 intravenous injection of 6 mg/kg; • (B) DST-3 oral gavage of 60 mg/kg; • (C) CTS intravenous injection of 6 mg/kg; • (D) CTS oral gavage of 60 mg/kg.
Blood collection was performed in all rats at 0.25 h, 0.5 h, 1 h, 2 h, 3 h, 4 h, 6 h, 8 h, 12 h, and 24 h after administration.
The blank plasma for method validation was rapidly extracted from the main abdominal vein of SD rats. The sample for the pharmacokinetic study was obtained by taking 250 μL of blood from the orbit of SD rats. The blood was placed in a heparinized collection vessel, centrifuged at 3000 rpm for 10 min, and the upper plasma layer was taken.
A 100 μL sample was precisely measured, and 10 μL of loratadine working solution and 500 μL of ethyl acetate were added for liquid–liquid-extraction. The mixture was shaken for 1 min, centrifuged for 4 min at 12,000× g, and 400 μL of the upper organic phase was vacuum dried for 2 h. Then 100 μL of mobile phase (methanol-1% formic acid water (90:10, v/v)) was added, dissolved, vortexed for 1 min, and centrifuged at low temperature for 3 min at 12,000× g. The supernatant (80 μL) was placed in a sample bottle for HPLC-MS/MS analysis.
According to the non-compartmental model, the pharmacokinetic software DAS 2.0 was used to calculate the main pharmacokinetic parameters: maximum plasma concentration (Cmax), elimination half-life (t1/2), time to reach maximum plasma concentration (Tmax), mean residence time (MRT0–t), area under the plasma concentration curve from 0 to the last measured concentration (AUC0−t), AUC from 0 to infinity (AUC0–∞), apparent clearance rate (CL/F) and apparent distribution volume (V/F).

MRC5 cells = assay: CCK8 cell viability assay; assay type: cell-based; settings: 20 μM, 48 h
Protocol: (§1) Medical Research Council cell strain-5 (MRC5, ATCC, Manassas, VA, USA, Cat# CCL-171) was supplemented with 10% fetal bovine serum (GIBCO, Invitrogen, Carlsbad, CA, USA) in low-sugar DMEM medium (GIBCO, Invitrogen, Carlsbad, CA, USA) in an incubator containing 5% CO2 atmosphere at 37 °C.
The cells were seeded in 96-well plates for 24 h and treated with DST-3 (1.25, 2.5, 5, 10, 20 μM) at different concentrations for 48 h. The CCK8 kit (Beyotime, Shanghai, China) was used to test the cytotoxic effect of DST-3 on MRC5 cells. Medium solution of 10% CCK8 was added to each well and incubated at 37 °C for 2 h. Absorbance was measured at 450 nm (BioTek, Elx800, Winooski, VT, USA).

[2] = test system: TGF-β1-stimulated MRC5 cells; assay: TGF-β1-induced fibrosis in MRC5 (α-SMA, fibronectin, type I collagen; immunofluorescence and Western blot); assay type: cell-based; settings: TGF-β1 5 ng/mL, 48 h
Protocol: as §1
MRC5 cells were fixed in 4% paraformaldehyde for 0.5 h, then permeated with 1% Triton X-100 (Sangon Biotech, Shanghai, China) for 10 min, and blocked with goat serum (BOSTER, Wuhan, China) for 1 h. The cells were then incubated with α-SMA or STAT3 (1:100 diluted) primary antibody overnight at 4 °C and secondary antibody at room temperature for 1 h. The nuclei were stained at room temperature with Hoechst 33,342 (1:100 diluted) for 10 min. Fluorescence images were captured using a laser scanning ultra-high resolution microscope (FV3000, Olympus Corporation, Tokyo, Japan).
MRC5 cells or lung tissues were washed with cold PBS and then lysed on ice using RIPA buffer (Beyotime Biotechnology, Shanghai, China) supplemented with protease and phosphatase inhibitors (Bimake, Boston, USA) for 0.5 h and centrifuged at 4 °C at 12,000× g for 15 min. […] (BCA protein Assay Kit, Pierce, Waltham, MA, USA) was used to determine protein concentration. […] Band strength was quantified by ImageJ software (version 1.53t, Bio-Rad, Rockford, IL, USA).

[3] = test system: BLM-induced pulmonary fibrosis in C57BL/6 mice; assay: BLM-induced pulmonary fibrosis model; assay type: in vivo; settings: BLM 2 mg/kg; DST-3 15–60 mg/kg, CTS 30 mg/kg oral
Source text: Sixty male Sprague-Dawley (SD) rats were individually weighed one day prior to administration and randomly assigned to six groups (n = 10 per group) using a stratified randomization method to ensure balanced average body weights across groups (weight range: 220–260 g; inter-group mean weight difference < 5 g). The vehicle used for […] administration of both CTS and DST-3 was 0.5% sodium carboxymethyl cellulose (CMC-Na) solution. A–F: • (A) Normal saline + CMC–Na; • (B) BLM + 0.5% CMC–Na; • (C) BLM + DST-3 15 mg/kg; • (D) BLM + DST-3 30 mg/kg; • (E) BLM + DST-3 60 mg/kg; • (F) BLM + CTS 30 mg/kg.
Pulmonary fibrosis was induced in groups B–F by tracheal infusion of bleomycin 2 mg/kg, and in group A by normal saline. To create a suspension for oral administration, all DST-3 or CTS were dissolved in 0.5% CMC-Na. […]
HYP was specifically detected in collagen as a posttranslational product of proline hydroxylation. […] In this study, the content of HYP in lung tissue was determined by alkaline hydrolyzation. […] Each sample was measured at 550 nm to detect the absorbance, and the HYP content was calculated according to the following formula: Hydroxproline content (μg/mg) =Measured OD value -Blank OD value/Standard OD value -Blank OD value× Stand content ×Lysate total volume (mL)/Organization wet weight (mg) […]

[4] = cited from earlier work
[5] = male, rat, plasma, iv 6 mg/kg, n = 4, mean ± SD
[6] = male, rat, plasma, oral 60 mg/kg
[7] = male, rat, plasma, po, ig 60 mg/kg, n = 4, mean ± SD

For `C[C@H]1COC2=C1C(=O)C(=O)c1c2ccc2c1CCCC2(C)C` [CTS, Cryptotanshinone], the V/F ([1]; ig 60 mg/kg, n = 4, mean ± SD) was 1391 ± 382.0 L, the V/F ([1]; iv 6 mg/kg, n = 4, mean ± SD) was 87.70 ± 59.30 L and the concentration at 0.25 h ([1]; male, rat, plasma, iv 6 mg/kg) was 341 ng/mL. It also gave a concentration at 0.5 h ([1]; male, rat, plasma, iv 6 mg/kg) of 167 ng/mL, a concentration at 1 h ([1]; male, rat, plasma, iv 6 mg/kg) of 91.7 ng/mL and a concentration at 2 h ([1]; male, rat, plasma, iv 6 mg/kg) of 73.9 ng/mL. For the same compound, the concentration at 3 h ([1]; male, rat, plasma, iv 6 mg/kg) was 62.8 ng/mL, the concentration at 4 h ([1]; male, rat, plasma, iv 6 mg/kg) was 45.7 ng/mL and the concentration at 6 h ([1]; male, rat, plasma, iv 6 mg/kg) was 29.9 ng/mL. For the same compound, the concentration at 8 h ([1]; male, rat, plasma, iv 6 mg/kg) was 19 ng/mL, the concentration at 12 h ([1]; male, rat, plasma, iv 6 mg/kg) was 10.2 ng/mL and the concentration at 24 h ([1]; male, rat, plasma, iv 6 mg/kg) was 4.8 ng/mL. For the same compound, the AUC(0-inf) [1, 5] was 671 ± 168 ng·h/mL, the AUC(0-t) [1, 5] was 631 ± 157 ng·h/mL and the Cmax [1, 5] was 341 ± 14.9 ng/mL. The half-life [1, 5] was 6.8 ± 3.7 h, the MRT last [1, 5] was 5.1 ± 0.3 h and the concentration at 0.25 h [1, 6] was 11.7 ng/mL. For the same compound, the concentration at 0.5 h [1, 6] was 13.6 ng/mL, the concentration at 1 h [1, 6] was 18.9 ng/mL and the concentration at 2 h [1, 6] was 16.3 ng/mL. For the same compound, the concentration at 3 h [1, 6] was 23 ng/mL, the concentration at 4 h [1, 6] was 34.8 ng/mL and the concentration at 6 h [1, 6] was 29.4 ng/mL. For the same compound, the concentration at 8 h [1, 6] was 31 ng/mL, the concentration at 12 h [1, 6] was 17.5 ng/mL and the concentration at 24 h [1, 6] was 8.9 ng/mL. It also gave a bioavailability ([1]; male, rat, plasma, oral, ig 60 mg/kg vs iv 6 mg/kg, AUCig/AUCiv × 100%, read-out: absolute bioavailability) of 8.56%, an AUC(0-inf) [1, 7] of 574 ± 51 ng·h/mL and an AUC(0-t) [1, 7] of 458 ± 22.8 ng·h/mL. The Cmax [1, 7] was 39.5 ± 6.8 ng/mL, the Tmax [1, 7] was 4.5 ± 1 h and the half-life [1, 7] was 9.3 ± 3 h. The MRT last [1, 7] was 15.7 ± 2.8 h, the “cell viability (cytotoxicity)” value (MRC5 cells) was “significantly decreased” and the “expression of α-SMA and ECM proteins” value [2] was “downregulate the overexpression”. For the same compound, the “histopathology (HE and Masson staining): inflammatory infiltration and fibrosis severity” value [3] was “reduced inflammatory infiltration and fibrosis severity”, the oral bioavailability ([4]; CTS is a substrate of P-glycoprotein) was 2.05% and the oral bioavailability ([4]; typically) was “below 10%”.
